According to patent US6083955A, “Arylethenesulfonamide derivatives and drug composition containing the same” (Yamanouchi Pharmaceutical Co., Ltd., priority 1995, dated 2000):

Biological target: T1, human ETA receptor (Homo sapiens, UniProt P25101)
T1 sequence (P25101 21-427): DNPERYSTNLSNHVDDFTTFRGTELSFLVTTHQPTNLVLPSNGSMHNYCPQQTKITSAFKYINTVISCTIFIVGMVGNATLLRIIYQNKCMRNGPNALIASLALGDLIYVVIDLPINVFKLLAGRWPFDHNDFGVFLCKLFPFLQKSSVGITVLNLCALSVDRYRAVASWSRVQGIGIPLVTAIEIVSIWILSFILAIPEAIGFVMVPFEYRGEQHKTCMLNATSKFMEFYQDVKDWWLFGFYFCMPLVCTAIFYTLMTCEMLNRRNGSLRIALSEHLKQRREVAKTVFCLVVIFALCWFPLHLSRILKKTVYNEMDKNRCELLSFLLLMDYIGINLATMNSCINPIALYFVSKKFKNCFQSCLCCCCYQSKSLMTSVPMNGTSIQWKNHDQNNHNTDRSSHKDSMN
Test: Test on Inhibition of Binding of Endothelin (ET-1) to Human ETA Receptor
Conditions: not given
Method: (1) Test on Inhibition of Binding of Endothelin (ET-1) to Human ETA Receptor
cDNA of human ETA receptor was obtained from mRNA of human lung by means of an RT-PCR and then transferred into pEF-BOS, a vector for expression, to prepare plasmid. The prepared plasmid was added to a culture of COS-1 cells (cell strain derived from renal cells of African green monkey) with DEAE-dextran and cDNA of human ETA was transfected to COS-1 cells. Then it was incubated for three days in a conventional DMEM (containing 10% of FBS) and the COS-1 cells recovered therefrom were suspended in a hypotonic buffer (10 mM Tris-HCl and 5 mM EDTA; pH 7.4) followed by homogenizing the cells using a Polytron. The suspension in which the cells were homogenized was subjected to an ultracentrifugation (100,000G for 30 minutes at 4° C.), the resulting precipitate (cell membrane fraction) was re-suspended in a Tris buffer (50 mM Tris-HCl and 10 mM MgCl2; pH 7.4) and the suspension was preserved by freezing at -80° C. (protein amount: about 1 mg/ml).
In conducting the experiment of binding the receptor, the frozen cell membrane sample was melted and resuspended in an incubation buffer (50 mM Tris-HCl, 10 mM MgCl2 and 0.01% bovine serum albumin; pH 7.4). The membrane suspension (200 μl) containing 1.25 μg as a membrane protein, 25 μl of an incubation buffer containing a test compound in various concentrations and 25 μl of [^125 I] ET-1 (specific activity: 2,200 Ci/mM; final concentration: […]) were incubated together at 25° C. for three hours and then filtered through a glass fiber filter using a Brandel cell harvester. Measurement of radioactivity on the glass fiber filter was conducted by means of a gamma-counter (counting efficiency: 81%). Nonspecific binding was determined by the use of a test buffer containing 0.1 μM of ET-1. Inhibiting activity of the test compound to [^125 I] ET-1 was calculated as a concentration (IC50) necessary for inhibiting 50% of the specific binding.

SMILES | IC50
COc1ccccc1Oc1c(NS(=O)(=O)C=Cc2ccccc2)nc(-c2ncccn2)nc1OC [Example 2, N-[6-methoxy-5-(2-methoxyphenoxy)-2-(2-pyrimidinyl)-4-pyrimidinyl]-2-phenylethenesulfonamide] | 3.1 nM

Same assay, conditions: inhibition of [^125 I] ET-1 specific binding; COS-1 cell membranes expressing human ETA; pH 7.4, 25° C., three hours; read-out: IC50

SMILES | IC50
COc1ccccc1Oc1c(NS(=O)(=O)C=Cc2ccccc2)nc(-c2ccoc2)nc1OC [Example 34, N-[6-Methoxy-5-(2-methoxyphenoxy)-2-(3-furyl)-4-pyrimidinyl]-2-phenylethenesulfonamide] | 9.7 nM
CCC(=Cc1ccccc1)S(=O)(=O)Nc1nc(-c2ncccn2)nc(OC)c1Oc1ccccc1OC.[K] [Example 38, Potassium N-[6-methoxy-5-(2-methoxyphenoxy)-2-(2pyrimidinyl)-4-pyrimidinyl]-1-ethyl-2-phenylethenesulfonamidate] | 3.3 nM
COc1cc(OC)cc(-c2nc(NS(=O)(=O)C=Cc3ccccc3)c(Oc3ccccc3OC)c(OC)n2)c1 [Example 22, N-[2-(3,5-Dimethoxyphenyl)-6-methoxy-5-(2-methoxyphenoxy)-4-pyrimidinyl]-2-phenylethenesulfonamide] | 9.5 nM
COc1ccccc1Oc1c(NS(=O)(=O)C=Cc2ccccc2)nc(-c2csc(C)n2)nc1OC [Example 33, N-[6-Methoxy-5-(2-methoxyphenoxy)-2-(2-methyl-4-thiazolyl)-4-pyrimidinyl]-2-phenylethenesulfonamide] | 7.7 nM
COc1ccccc1Oc1c(NS(=O)(=O)C=Cc2ccccc2)nc(-c2ccncc2)nc1OC [Example 27, N-[6-Methoxy-5-(2-methoxyphenoxy)-2-(4-pyridyl)-4-pyrimidinyl]-2-phenylethenesulfonamide] | 5.9 nM

Results, then the compound that gave them:

IC50 | SMILES
4.4 nM | COc1ccccc1Oc1c(NS(=O)(=O)C=Cc2ccc3ccccc3c2)nc(-c2ncccn2)nc1OC [Example 45, N-[6-Methoxy-5-(2-methoxyphenoxy)-2-(2-pyrimidinyl)-4-pyrimidinyl]-2-(2-naphthyl)ethenesulfonamide]
1.6 nM | COc1ccccc1Oc1c(NS(=O)(=O)C=Cc2ccccc2)nc(-c2ncccn2)nc1OCCO [Example 1, potassium N-[6-(2-hydroxyethoxy)-5-(2-methoxyphenoxy)-2-(2-pyrimidinyl)-4-pyrimidinyl]-2-phenylethenesulfonamidate]
1.6 nM | COc1ccccc1Oc1c(NS(=O)(=O)C(C)=Cc2ccccc2)nc(-c2ncccn2)nc1OC [Example 37, N-[6-Methoxy-5-(2-methoxyphenoxy)-2-(2-pyrimidinyl)-4-pyrimidinyl]-1-methyl-2-phenylethenesulfonamide]
4.8 nM | COCCOc1nc(-c2ncccn2)nc(NS(=O)(=O)C=Cc2ccccc2)c1Oc1ccccc1OC [Example 6, N-[6-(2-Methoxyethoxy)-5-(2-methoxyphenoxy)-2-(2-pyrimidinyl)-4-pyrimidinyl]-2-phenylethenesulfonamide]
5.1 nM | COc1ccccc1Oc1c(NS(=O)(=O)C=Cc2ccccc2)nc(-c2ccsc2)nc1OC [Example 32, N-[6-Methoxy-5-(2-methoxyphenoxy)-2-(3-thienyl)-4-pyrimidinyl]-2-phenylethenesulfonamide]
5.5 nM | C#CCOc1nc(-c2ncccn2)nc(NS(=O)(=O)C=Cc2ccccc2)c1Oc1ccccc1OC [Example 13, N-[6-(2-propynyloxy)-5-(2-methoxyphenoxy)-2-(2-pyrimidinyl)-4-pyrimidinyl]-2-phenylethenesulfonamide]
3 nM | COc1ccccc1Oc1c(NS(=O)(=O)C=Cc2ccccc2Cl)nc(-c2ncccn2)nc1OC [Example 47, N-[6-Methoxy-5-(2-methoxyphenoxy)-2-(2-pyrimidinyl)-4-pyrimidinyl]-2-(2-chlorophenyl)ethenesulfonamide]
1.5 nM | COc1ccccc1Oc1c(NS(=O)(=O)C=Cc2cccs2)nc(-c2ncccn2)nc1OC [Example 42, N-[6-Methoxy-5-(2-methoxyphenoxy)-2-(2-pyrimidinyl)-4-pyrimidinyl]-2-(2-thienyl)ethenesulfonamide]
2.9 nM | COc1ccccc1Oc1c(NS(=O)(=O)C=Cc2ccccc2)nc(-c2ncccn2)nc1OCCF [Example 8, N-[6-(2-fluoroethoxy)-5-(2-methoxyphenoxy)-2-(2-pyrimidinyl)-4-pyrimidinyl]-2-phenylethenesulfonamide]
2.8 nM | COc1ccccc1Oc1c(NS(=O)(=O)C=Cc2ccc(C)cc2)nc(-c2ncccn2)nc1OC [Example 39, N-[6-Methoxy-5-(2-methoxyphenoxy)-2-(2-pyrimidinyl)-4-pyrimidinyl]-2-(4-methylphenyl)ethenesulfonamide]

Tested on: big ET-1-induced pressor responses
Test: Test on Inhibition of Big ET-1-induced Pressor Responses in Pithed Rats
Type: in vivo, male Wistar rats
Conditions: Rattus norvegicus, 0.5 h; oral administration 30 minutes before pithing; dose shifting big ET-1 pressor dose-response curve two-fold to the right; read-out: DR2
Method: (3) Test on Inhibition of Big ET-1-induced Pressor Responses in Pithed Rats
Male Wistar rats (body weight: […]) were anesthetized by sodium pentobarbital (60 mg/kg, i.p.) and a cannula for artificial ventilation was inserted into a trachea. Spinal cord was broken by inserting a rod made of steel thereinto and then the rat was connected to an artificial respirator. A catheter for measuring the systemic arterial blood pressure was inserted into a carotid artery while another catheter for administering big ET-1 was inserted into a femoral vein. After 30 minutes from the oral administration of a test compound at doses of 0.1 to 10 mg/kg, the rat was pithed and then big ET-1 was intravenously administered at doses of 0.1 to 3.2 nmol/kg in a cumulative manner. Activity of the test compound was evaluated by the dose (DR2 value) whereby the dose-response curve of pressor responses by big ET-1 to the right hand direction to an extent of two-fold.

SMILES | ED (2-fold shift)
COc1ccccc1Oc1c(NS(=O)(=O)c2ccc(C(C)(C)C)cc2)nc(-c2ncccn2)nc1OCCO [Comparative Compound, Bosentan, reference compound] | 32 mg/kg
COc1ccccc1Oc1c(NS(=O)(=O)C=Cc2cccs2)nc(-c2ncccn2)nc1OC [Example 42, N-[6-Methoxy-5-(2-methoxyphenoxy)-2-(2-pyrimidinyl)-4-pyrimidinyl]-2-(2-thienyl)ethenesulfonamide] | 1.85 mg/kg

Same assay, conditions: Rattus norvegicus, po, 0.5 h, read-out: DR2

SMILES | ED (2-fold shift)
CCC(=Cc1ccccc1)S(=O)(=O)Nc1nc(-c2ncccn2)nc(OC)c1Oc1ccccc1OC.[K] [Example 38, Potassium N-[6-methoxy-5-(2-methoxyphenoxy)-2-(2pyrimidinyl)-4-pyrimidinyl]-1-ethyl-2-phenylethenesulfonamidate] | 0.65 mg/kg
COc1ccccc1Oc1c(NS(=O)(=O)C=Cc2ccccc2)nc(-c2ncccn2)nc1OC [Example 2, N-[6-methoxy-5-(2-methoxyphenoxy)-2-(2-pyrimidinyl)-4-pyrimidinyl]-2-phenylethenesulfonamide] | 0.61 mg/kg
